According to US6133287A, “Piperidine-indole compounds having 5-HT6 affinity” (Allelix Biopharmaceuticals Inc., priority 1998, dated 2000):
Where a name gives a salt, the structure may show the parent alone. Read-outs that look alike come from different tables or passages of the source.

Legend:
[1] = target: T1, human 5-HT6 receptor (Homo sapiens, UniProt P50406); test: Binding affinity for the 5-HT6 receptor (3H-LSD radioligand binding, membranes of cells expressing the receptor); design: expressed in transfected cells; settings: 60 minute incubation at 37° C.
T1 sequence (P50406 whole entry): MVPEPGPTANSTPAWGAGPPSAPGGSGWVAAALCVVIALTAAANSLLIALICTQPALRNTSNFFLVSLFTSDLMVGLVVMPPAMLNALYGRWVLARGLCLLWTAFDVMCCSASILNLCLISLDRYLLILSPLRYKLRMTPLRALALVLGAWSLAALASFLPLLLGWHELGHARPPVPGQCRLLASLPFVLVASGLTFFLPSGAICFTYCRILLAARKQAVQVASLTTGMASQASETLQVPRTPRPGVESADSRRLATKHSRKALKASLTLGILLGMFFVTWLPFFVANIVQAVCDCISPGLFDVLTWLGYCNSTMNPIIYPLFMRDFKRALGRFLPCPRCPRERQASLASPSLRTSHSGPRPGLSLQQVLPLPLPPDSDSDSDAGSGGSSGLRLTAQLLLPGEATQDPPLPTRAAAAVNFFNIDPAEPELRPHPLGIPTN
Experimental: (§1) All of the compounds of the invention were evaluated using cell types receptive specifically to the 5-HT6 receptor (for cloning and characterization of the human 5-HT6 receptor see Kohen, et al. J. Neurochemistry, 66, 1996: 47-56). […] After a 60 minute incubation at 37° C., the incubation was terminated by vacuum filtration. The filters were washed with buffer and the filters were counted for radioactivity using liquid scintillation spectrometry. The affinity of the test compound for the 5-HT6 receptor was determined by computer-assisted analysis of the data and determining the amount of the compound necessary to inhibit 50% of the binding of the radioligand to the receptor. Concentrations ranging from 10^-11 M to 10^-5 M of the test compound were evaluated.

[2] = target: human 5-HT7 receptor (Homo sapiens, UniProt P34969); test: Selectivity of binding to the human 5-HT6 receptor relative to the human 5-HT7 receptor; settings: 5-HT6 vs 5-HT7
Sequence of human 5-HT7 receptor (P34969 whole entry): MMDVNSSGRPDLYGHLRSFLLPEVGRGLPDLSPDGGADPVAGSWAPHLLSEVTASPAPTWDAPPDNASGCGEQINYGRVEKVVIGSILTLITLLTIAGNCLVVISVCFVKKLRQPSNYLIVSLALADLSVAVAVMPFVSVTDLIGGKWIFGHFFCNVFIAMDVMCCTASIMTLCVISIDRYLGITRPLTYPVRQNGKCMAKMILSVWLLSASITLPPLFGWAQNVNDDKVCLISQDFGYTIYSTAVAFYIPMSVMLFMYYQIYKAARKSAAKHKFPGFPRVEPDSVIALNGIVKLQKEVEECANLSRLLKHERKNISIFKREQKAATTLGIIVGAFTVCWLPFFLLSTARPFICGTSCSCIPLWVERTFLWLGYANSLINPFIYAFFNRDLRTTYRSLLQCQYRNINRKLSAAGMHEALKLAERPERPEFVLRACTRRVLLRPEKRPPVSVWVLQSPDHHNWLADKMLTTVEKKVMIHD

[3] = target: T2, human 5-HT2c receptor (Homo sapiens, UniProt P28335); test: Selectivity of binding to the human 5-HT6 receptor relative to the human 5-HT2c receptor; settings: 5-HT6 vs 5-HT2c
T2 sequence (P28335 33-458): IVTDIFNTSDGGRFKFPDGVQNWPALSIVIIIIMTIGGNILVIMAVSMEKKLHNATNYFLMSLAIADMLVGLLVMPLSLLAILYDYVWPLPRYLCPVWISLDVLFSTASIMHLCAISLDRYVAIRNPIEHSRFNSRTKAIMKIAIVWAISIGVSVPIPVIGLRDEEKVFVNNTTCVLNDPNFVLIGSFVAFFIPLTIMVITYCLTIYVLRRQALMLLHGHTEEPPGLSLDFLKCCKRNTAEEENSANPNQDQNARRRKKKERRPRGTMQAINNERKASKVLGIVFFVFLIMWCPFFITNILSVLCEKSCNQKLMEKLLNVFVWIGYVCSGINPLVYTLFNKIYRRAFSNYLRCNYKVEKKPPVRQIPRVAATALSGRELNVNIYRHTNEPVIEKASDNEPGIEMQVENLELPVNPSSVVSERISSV
Experimental: as §1

[4] = target: T1, human 5-HT6 receptor; test: Effect of compounds on the cAMP response of human 5-HT6 receptors (stably transfected HEK293 cells, cAMP EIA); type: cell-based; design: expressed in transfected cells; host or cells: HEK293
Experimental: The antagonist (or agonist ) property of compounds for human 5-HT6 receptors was determined by testing their effect on cAMP accumulation in stably transfected HEK293 cells.
Human 5-HT6 receptors were cloned and stably expressed in HEK293 cells. These cells were plated in 6 well plates in DMEM/F12 media with 10% fetal calf serum (FCS) and 500 μg/mL G418 and incubated at 37° C. in a CO2 incubator. The cells were allowed to grow to about 70% confluence before initiation of the experiment.
On the day of the experiment, the culture media was removed, and the cells were washed once with serum free medium (SFM). Two mL of SFM+IBMX media was added and incubated at 37° C. for 10 min. The media were removed and fresh SFM+IBMX media containing various compounds, and 1 μM serotonin (as antagonist) were added to the appropriate wells and incubated for 30 min. […]
cAMP content was determined by EIA (enzyme-immunoassay) using the Amersham Biotrak cAMP EIA kit (Amersham RPN 225). […] Briefly, cAMP is determined by the competition between unlabeled cAMP and a fixed quantity of peroxidase-labelled cAMP for the binding sites on anti-cAMP antibody. […] The reaction is stopped by the addition of 100 μL 1.0 M sulfuric acid and the resultant color read by a microtitre plate spectrophotometer at 450 nM within 30 minutes. […]

| Structure (SMILES) | Ki ([1]; Ki) [nM] | also measured |
| --- | --- | --- |
| CN1CC=C(c2cn(S(=O)(=O)c3ccc(Br)cc3)c3c(F)cc(F)cc23)CC1 [Example 7am, 1-(4-Bromophenylsulfonyl)-5,7-difluoro-3-(1-methyl-1,2,3,6-tetrahydro-4-pyridinyl)indole] | ≤ 5 | – |
| COc1ccc(S(=O)(=O)n2cc(C3=CCN(C)CC3)c3cc(C(F)(F)F)ccc32)cc1 [Example 7vv, 1-(4-Methoxyphenylsulfonyl)-3-(1-methyl-1,2,3,6-tetrahydro-4-pyridinyl)-5-trifluoromethylindole hydrochloride] | ≤ 50 | – |
| CN1CC=C(c2cn(C(=O)c3c(Cl)cccc3Cl)c3ccc(C(F)(F)F)cc23)CC1 [Example 7qqq, 1-(2,6-Dichlorobenzoyl)-3-(1-methyl-1,2,3,6-tetrahydro-4-pyridinyl)-5-trifluoromethyl-indole] | ≤ 50 | – |
| CN1CC=C(c2cn(S(=O)(=O)c3ccc4ccccc4c3)c3ccc(F)cc23)CC1 [Example 7hh, 5-Fluoro-3-(1-methyl-1,2,3,6-tetrahydro-4-pyridinyl)-1-(2-naphthylsulfonyl)indole] | – | greater affinity for human 5-HT6 receptor relative to human 5-HT7 receptor [2]: ≥ 60 fold; greater affinity for human 5-HT6 receptor relative to human 5-HT2c receptor [3]: ≥ 60 fold |
| CN1CC=C(c2cn(C(=O)c3cc(Cl)ccc3Cl)c3c(F)cc(F)cc23)CC1 [Example 7as, 1-(2,5-Dichlorobenzoyl)-5,7-difluoro-3-(1-methyl-1,2,3,6-tetrahydro-4-pyridinyl)indole] | ≤ 50 | – |
| CN1CC=C(c2cn(S(=O)(=O)c3ccccc3)c3ccc(Cl)cc23)CC1 [Example 7jj, 5-Chloro-3-(1-methyl-1,2,3,6-tetrahydro-4-pyridinyl)-1-phenylsulfonylindole] | ≤ 5 | – |
| CN1CC=C(c2cn(S(=O)(=O)c3ccc4ccccc4c3)c3c(F)cc(F)cc23)CC1 [Example 7ap, 5,7-Difluoro-3-(1-methyl-1,2,3,6-tetrahydro-4-pyridinyl)-1-(2-naphthylsulfonyl)indole] | ≤ 5 | – |
| CN1CC=C(c2cn(S(=O)(=O)c3ccc(F)cc3)c3ccc(F)cc23)CC1 [6 cc] | – | EC50 ([4]; read-out: EC50, concentration causing 50% inhibition of the serotonin-stimulated cAMP response, 1 μM serotonin, 30 min): 10 nM |
| CN1CC=C(c2cn(S(=O)(=O)c3ccc(F)cc3)c3ccc(F)cc23)CC1 [Example 7cc, 1-(4-Fluorophenylsulfonyl)-5-fluoro-3-(1-methyl-1,2,3,6-tetrahydro-4-pyridinyl)indole] | ≤ 5 | – |
| CN1CC=C(c2cn(C(=O)c3ccccc3Cl)c3ccc(OC4CCCCC4)cc23)CC1 [Example 7aaa, 1-(2-Chlorobenzoyl)-5-cyclohexyloxy-3-(1-methyl-1,2,3,6-tetrahydro-4-pyridinyl) indole] | ≤ 5 | – |
| CN1CC=C(c2cn(S(=O)(=O)c3ccccc3)c3c(F)cc(F)cc23)CC1 [Example 7aj, 5,7-Difluoro-3-(1-methyl-1,2,3,6-tetrahydro-4-pyridinyl)-1-phenylsulfonylindole] | ≤ 5 | – |
| CN1CC=C(c2cn(C(=O)c3ccc(F)cc3)c3c(F)cc(F)cc23)CC1 [Example 7ar, 5,7-Difluoro-1-(4-fluorobenzoyl)-3-(1-methyl-1,2,3,6-tetrahydro-4-pyridinyl)indole] | ≤ 5 | – |
| CN1CC=C(c2cn(C(=O)c3ccccc3Cl)c3ccc(F)cc23)CC1 [Example 6c, 1-(2-Chlorobenzoyl)-5-fluoro-3-(1-methyl-1,2,3,6-tetrahydro-4-pyridinyl)indole] | ≤ 5 | – |
| CN1CC=C(c2cn(S(=O)(=O)c3ccccc3)c3ccc(OC4CCCCC4)cc23)CC1 [Example 7m, 5-Cyclohexyloxy-3-(1-methyl-1,2,3,6-tetrahydro-4-pyridinyl)-1-phenylsulfonylindole] | ≤ 50 | – |
| CN1CC=C(c2cn(C(=O)c3c(Cl)cccc3Cl)c3ccc(F)cc23)CC1 [Example 6f, 1-(2,6-Dichlorobenzoyl)-5-fluoro-3-(1-methyl-1,2,3,6-tetrahydro-4-pyridinyl)indole] | ≤ 5 | – |
| CN1CC=C(c2cn(S(=O)(=O)c3ccccc3)c3ccc(F)cc23)CC1 [Example 7ii, 5-Fluoro-3-(1-methyl-1,2,3,6-tetrahydro-4-pyridinyl)-1-phenylsulfonylindole] | ≤ 5 | – |
| CN1CC=C(c2cn(S(=O)(=O)c3ccc(Cl)cc3)c3ccc(F)cc23)CC1 [Example 7dd, 1-(4-Chlorophenylsulfonyl)-5-fluoro-3-(1-methyl-1,2,3,6-tetrahydro-4-pyridinyl)indole] | – | greater affinity for human 5-HT6 receptor relative to human 5-HT7 receptor [2]: ≥ 60 fold; greater affinity for human 5-HT6 receptor relative to human 5-HT2c receptor [3]: ≥ 60 fold |
| CN1CCC(c2c[nH]c3cc(Cl)ccc23)CC1 [Example 5b, 6-Chloro-3-(1-methyl-4-piperidinyl)-1H-indole] | – | EC50 ([4]; 1 μM serotonin, 30 min, read-out: EC50, concentration causing 50% inhibition of the serotonin-stimulated cAMP response): 1900 nM |
| Cc1ccc(S(=O)(=O)n2cc(C3=CCN(C)CC3)c3cc(F)ccc32)cc1 [Example 6b, 5-Fluoro-1-(4-methylphenylsulfonyl)-3-(1-methyl-1,2,3,6-tetrahydro-4-pyridinyl)indole] | – | greater affinity for human 5-HT6 receptor relative to human 5-HT7 receptor [2]: ≥ 60 fold; greater affinity for human 5-HT6 receptor relative to human 5-HT2c receptor [3]: ≥ 60 fold |
| CN1CC=C(c2cn(S(=O)(=O)c3ccccc3)c3cc(Br)ccc23)CC1 [Example 7j, 6-Bromo-3-(1-methyl-1,2,3,6-tetrahydro-4-pyridinyl)-1-phenylsulfonylindole] | ≤ 50 | – |
| CN1CC=C(c2cn(S(=O)(=O)c3ccccc3)c3ccc(C(F)(F)F)cc23)CC1 [Example 7rr, 3-(1-Methyl-1,2,3,6-tetrahydro-4-pyridinyl)-1-phenylsulfonyl-5-trifluoromethylindole hydrochloride] | ≤ 5 | – |
| CN1CC=C(c2cn(S(=O)(=O)c3cccc4ccccc34)c3ccc(F)cc23)CC1 [Example 7gg, 5-Fluoro-3-(1-methyl-1,2,3,6-tetrahydro-4-pyridinyl)-1-(1-naphthylsulfonyl)indole] | ≤ 50 | – |
| CN1CC=C(c2cn(S(=O)(=O)c3ccccc3Br)c3ccc(F)cc23)CC1 [Example 7bb, 1-(2-Bromophenylsulfonyl)-5-fluoro-3-(1-methyl-1,2,3,6-tetrahydro-4-pyridinyl)indole] | – | greater affinity for human 5-HT6 receptor relative to human 5-HT7 receptor [2]: ≥ 60 fold; greater affinity for human 5-HT6 receptor relative to human 5-HT2c receptor [3]: ≥ 60 fold |
| CN1CC=C(c2cn(C(=O)c3ccccc3)c3ccc(Cl)cc23)CC1 [Example 7jjj, 1-Benzoyl-5-chloro-3-(1-methyl-1,2,3,6-tetrahydro-4-pyridinyl)indole hydrochloride] | ≤ 50 | – |
| CN1CC=C(c2cn(C(=O)c3ccccc3)c3ccc(Br)cc23)CC1 [Example 6g, 1-Benzoyl-5-bromo-3-(1-methyl-1,2,3,6-tetrahydro-4-pyridinyl)indole] | ≤ 50 | greater affinity for human 5-HT6 receptor relative to human 5-HT7 receptor [2]: ≥ 60 fold; greater affinity for human 5-HT6 receptor relative to human 5-HT2c receptor [3]: ≥ 60 fold |
| Cc1ccc(S(=O)(=O)n2cc(C3=CCN(C)CC3)c3cc(OC4CCCCC4)ccc32)cc1 [Example 7i, 5-Cyclohexyloxy-1-(4-methylphenylsulfonyl)-3-(1-methyl-1,2,3,6-tetrahydro-4-pyridinyl)indole] | – | greater affinity for human 5-HT6 receptor relative to human 5-HT7 receptor [2]: ≥ 60 fold; greater affinity for human 5-HT6 receptor relative to human 5-HT2c receptor [3]: ≥ 60 fold |
| CN1CCC(c2cn(S(=O)(=O)c3ccccc3)c3ccccc23)CC1 [Example 7uuu, 3-(1-Methyl-4-piperidinyl)-1-phenylsulfonylindole] | – | Ki ([1]; read-out: Ki): ≤ 50 nM |
